From ChEMBL document CHEMBL5543084, “Development of cannabidiol derivatives as potent broad-spectrum antibacterial agents with membrane-disruptive mechanism” (Eur J Med Chem, 2024)
In brackets after ≈: the same amount, converted by molar mass. Activity calls are given as the source filed them. The calls are words filed in the database; no cut-off is given here.

Columns and labels:
Escherichia coli [1] = experiment: Bactericidal activity against Escherichia coli ATCC 25922 assessed as change in xenobiotics biodegradation and metabolism gene expression at 4 times of MIC concentration measured after 90 mins incubation by RNA sequencing (RNA-seq) study; assay type: functional, organism-based
Lipopolysaccharide (LPS) [2] = experiment: Displacement of BODIPY-TR-cadaverine from Escherichia coli lipopolysaccharide (LPS) assessed as increase in fluorescence intensity at 4 times MIC measured after 30 mins by fluorescence spectrophotometric analysis; assay type: subcellular
Lipoteichoic acid = experiment: Displacement of BODIPY-TR-cadaverine from Bacillus subtilis lipoteichoic acid (LTA) assessed as increase in fluorescence intensity by fluorescence spectrophotometric analysis
Escherichia coli [3] = experiment: Antibacterial activity against Escherichia coli ATCC 25922 assessed as inhibition of bacterial growth incubated for 24 hrs in presence of 20 uM Fe2+ by broth dilution method; assay type: functional
Klebsiella pneumoniae [4] = experiment: Antibacterial activity against Klebsiella pneumoniae ATCC 10031 assessed as inhibition of bacterial growth incubated for 24 hrs in presence of 20 uM Fe3+ by broth dilution method; assay type: functional
Staphylococcus aureus [5] = experiment: Bactericidal activity against methicillin-resistant Staphylococcus aureus NCTC 10442 assessed as up-regulation of molecular functions related gene expression by measuring aminoacyl-tRNA hydrolase activity (GO:0004045) at 4 times of MIC concentration measured after 90 mins incubation by RNA sequencing (RNA-seq) study; assay type: functional, organism-based
Cell membrane [6] = experiment: Induction of cytoplasmic membrane permeabilization in Escherichia coli ATCC 25922 assessed as disruption of cell membrane integrity measured upto 60 mins by measuring increase in fluorescence intensity at 1 to 8 times of MIC concentration by SYTOX green dye based fluorescence analysis; assay type: cell membranes
Staphylococcus aureus [7] = experiment: Bactericidal activity against methicillin-resistant Staphylococcus aureus NCTC 10442 assessed as down-regulation of biological processes related gene expression by measuring glutamate metabolic process (GO:0006536) at 4 times of MIC concentration measured after 90 mins incubation by RNA sequencing (RNA-seq) study; assay type: functional, organism-based
Escherichia coli [8] = experiment: Bactericidal activity against Escherichia coli ATCC 25922 assessed as down regulation of phenylalanine metabolism gene expression at 4 times of MIC concentration measured after 90 mins incubation by RNA sequencing (RNA-seq) study; assay type: functional, organism-based
Staphylococcus aureus [9] = experiment: Bactericidal activity against methicillin-resistant Staphylococcus aureus NCTC 10442 assessed as up regulation of phosphonate and phosphinate metabolism gene expression at 4 times of MIC concentration measured after 90 mins incubation by RNA sequencing (RNA-seq) study; assay type: functional, organism-based
Staphylococcus aureus [10] = experiment: Bactericidal activity against methicillin-resistant Staphylococcus aureus NCTC 10442 assessed as change in cell death associated gene expression by measuring down-regulation of biofilm formation plfA (DX983_RS01360) and plfB (DX983_RS01355) gene expression at 4 times of MIC concentration measured after 90 mins incubation by RNA sequencing (RNA-seq) study; assay type: functional, organism-based
Staphylococcus aureus [11] = experiment: Bactericidal activity against methicillin-resistant Staphylococcus aureus NCTC 10442 assessed as bacterial reduction at 8 time of MIC concentration incubated for 0.5 hrs by time-kill assay; assay type: functional
Escherichia coli [12] = experiment: Bactericidal activity against Escherichia coli ATCC 25922 assessed as change in cell death associated gene expression by measuring down-regulation of glycosyltransferase family 2 (D1792_RS06385) gene expression at 4 times of MIC concentration measured after 90 mins incubation by RNA sequencing (RNA-seq) study; assay type: functional, organism-based
[13] = Cytotoxicity against mouse fibroblast NCTC clone 929 cells assessed as viable cells at […] microg/ml incubated for 24 hrs by CCK-8 assay; assay type: toxicity, cell-based; details: NCTC clone 929 (L929) fibroblast cells, dose 1.56 µg/ml, read-out: Activity
[14] = Cytotoxicity against mouse fibroblast NCTC clone 929 cells assessed as viable cells at 3.125 microg/ml incubated for 24 hrs by CCK-8 assay; assay type: toxicity, cell-based; details: NCTC clone 929 (L929) fibroblast cells, at 3.125 µg/mL, read-out: Activity
Lipopolysaccharide (LPS) [15] = experiment: Displacement of BODIPY-TR-cadaverine from Escherichia coli lipopolysaccharide (LPS) assessed as increase in fluorescence intensity at 1 times MIC measured after 30 mins by fluorescence spectrophotometric analysis; assay type: subcellular
Lipopolysaccharide (LPS) [16] = experiment: Displacement of BODIPY-TR-cadaverine from Escherichia coli lipopolysaccharide (LPS) assessed as increase in fluorescence intensity by fluorescence spectrophotometric analysis; assay type: subcellular
Escherichia coli [17] = experiment: Antibacterial activity against Escherichia coli ATCC 25922 assessed as inhibition of bacterial growth incubated for 24 hrs in presence of 2.5 mM Ca2+ by broth dilution method; assay type: functional
[18] = Cytotoxicity against mouse fibroblast NCTC clone 929 cells assessed as viable cells at 25 microg/ml incubated for 24 hrs by CCK-8 assay; assay type: toxicity, cell-based; details: NCTC clone 929 (L929) fibroblast cells, at 25 µg/mL, read-out: Activity
Staphylococcus aureus [19] = experiment: Antibacterial activity against Staphylococcus aureus ATCC 29213 assessed as inhibition of bacterial growth incubated for 24 hrs in presence of 20 uM Fe2+ by broth dilution method; assay type: functional
Klebsiella pneumoniae [20] = experiment: Antibacterial activity against Klebsiella pneumoniae ATCC 10031 assessed as inhibition of bacterial growth incubated for 24 hrs by broth dilution method; assay type: functional
Cell membrane [21] = experiment: Induction of outer membrane permeabilization in Escherichia coli ATCC 25922 assessed as increase in fluorescence intensity at 1 to 8 times MIC concentration by NPN-dye based fluorescence analysis; assay type: cell membranes
Acinetobacter baumannii = experiment: Antibacterial activity against Acinetobacter baumannii ATCC 17978 assessed as inhibition of bacterial growth incubated for 24 hrs by broth dilution method; assay type: functional
Escherichia coli [22] = experiment: Bactericidal activity against Escherichia coli ATCC 25922 assessed as change in metabolic stress associated gene expression by measuring down-regulation of gale (DX983_RS06370) gene expression at 4 times of MIC concentration measured after 90 mins incubation by RNA sequencing (RNA-seq) study; assay type: functional, organism-based
Staphylococcus aureus [23] = experiment: Antibacterial activity against Staphylococcus aureus ATCC 29213 assessed as inhibition of bacterial growth incubated for 24 hrs in presence of 1 mM Mg2+ by broth dilution method; assay type: functional
Staphylococcus aureus [24] = experiment: Bactericidal activity against methicillin-resistant Staphylococcus aureus NCTC 10442 assessed as down regulation of other glycan degradation gene expression at 4 times of MIC concentration measured after 90 mins incubation by RNA sequencing (RNA-seq) study; assay type: functional, organism-based
Cell membrane [25] = experiment: Induction of cytoplasmic membrane permeabilization in Pseudomonas aeruginosa ATCC 9027 assessed as disruption of cell membrane integrity measured upto 60 mins by measuring increase in fluorescence intensity at 1 to 8 times of MIC concentration by SYTOX green dye based fluorescence analysis; assay type: cell membranes
Escherichia coli [26] = experiment: Bactericidal activity against Escherichia coli ATCC 25922 assessed as change in cell death associated gene expression by measuring down-regulation of CDPglycerol glycero-phosphotransferase (D1792_RS11350) gene expression at 4 times of MIC concentration measured after 90 mins incubation by RNA sequencing (RNA-seq) study; assay type: functional, organism-based
[27] = Cytotoxicity against human HepG2 cells assessed as viable cells at 6.25 microg/ml incubated for 24 hrs by CCK-8 assay; assay type: toxicity, cell-based; details: at 6.25 µg/mL, read-out: Activity
Klebsiella pneumoniae [28] = experiment: Antibacterial activity against Klebsiella pneumoniae ATCC 10031 assessed as inhibition of bacterial growth incubated for 24 hrs in presence of 20 uM Fe2+ by broth dilution method; assay type: functional

C=C(C)[C@@H]1CCC(C)=C[C@H]1c1c(OCCCNC(=N)N)cc(CCCCC)cc1OCCCNC(=N)N
Activity (Escherichia coli [1]): Active
Activity (Lipopolysaccharide (LPS) [2]): 76.5%
Activity (Lipoteichoic acid): Dose-Dependent Effect
MIC (Escherichia coli [3]): 1.56 µg/mL
MIC (Klebsiella pneumoniae [4]): 3.12 µg/mL
Activity (Staphylococcus aureus [5]): Active
Activity (Cell membrane [6]): Active
Activity (Staphylococcus aureus [7]): Active
Activity (Escherichia coli [8]): Active
Activity (Staphylococcus aureus [9]): Active
Activity (Staphylococcus aureus [10]): Active
Activity (Staphylococcus aureus [11]): 3 log10FFU/ml
Activity (Escherichia coli [12]): Active
viability at 24 h, 1.56 microg/ml [13]: 94%
viability at 24 h, 3.125 microg/ml [14]: 92.3%
Activity (Lipopolysaccharide (LPS) [15]): 27.7%
Activity (Lipopolysaccharide (LPS) [16]): Dose-Dependent Effect
MIC (Escherichia coli [17]): 3.12 µg/mL
viability at 24 h, 25 microg/ml [18]: 68.7%
MIC (Staphylococcus aureus [19]): 0.39 µg/mL
MIC (Klebsiella pneumoniae [20]): 1.56 µg/mL (≈ 3.04 µM)
Activity (Cell membrane [21]): Dose-Dependent Effect
MIC (Acinetobacter baumannii): 3.12 µg/mL (≈ 6.09 µM)
Activity (Escherichia coli [22]): Active
MIC (Staphylococcus aureus [23]): 1.56 µg/mL
Activity (Staphylococcus aureus [24]): Active
Activity (Cell membrane [25]): Active
Activity (Escherichia coli [26]): Active
viability at 24 h, 6.25 microg/ml [27]: 91.3%
MIC (Klebsiella pneumoniae [28]): 3.12 µg/mL
